PMC4309560, “Creating Novel Activated Factor XI Inhibitors through Fragment Based Lead Generation and Structure Aided Drug Design” (PLoS ONE, 2015)
Where two headings read alike, the source gives them in different places.

Experiments:
Human FXIa = molecular target: T1, Human FXIa (Homo sapiens, UniProt P03951); assay: FXIa enzymatic chromogenic assay; assay type: biochemical
T1 construct: purchased HTI, Essex Junction, USA
Method: (§1) Enzymatic assay. […] Selected compounds were also screened against other serine proteases to evaluate their selectivity profiles.
(§2) Once the compounds were synthesized and characterized, enzymatic assays were performed to evaluate the inhibitory activity of the resulting compounds against FXIa and other serine proteases. […] IC50 values for the compounds were determined using equation: Q= V/(1+([I]/IC50)^n) Q denotes the assay readout, V denotes the uninhibited velocity of the enzyme, [I] denotes the inhibitor concentration, n denotes the slope and IC50 is the inhibitor concentration at V/2.
(§3) [S] denotes the substrate concentration.

Human PKK = molecular target: T2, Human PKK (Homo sapiens, UniProt P03952); assay: PKK (plasma kallikrein) chromogenic assay; assay type: biochemical; details: for Ki: converted from IC50
T2 construct: trypsin, plasma kallikrein (PKK), FIXa; purchased Calbiochem, Darmstadt, Germany
Method: as §1, §2, §3
PKK. Human PKK was from Calbiochem, Darmstadt, Germany.

Human FIXa = Human FIXa (Homo sapiens, UniProt P00740); assay: biochemical; details: read-out: FIXa % inhibition at 99 μM
Method: as §1, §2

Human FXa = Human FXa (Homo sapiens, UniProt P00742); assay: biochemical; details: read-out: FXa % inhibition at 99 μM
Method: as §1, §2

[1] = molecular target: Recombinant human trypsin (Homo sapiens, UniProt P07477); assay: biochemical; details: read-out: Trypsin % inhibition at 99 μM
Method: as §1, §2
Trypsin. Recombinant human trypsin was from Polymun, Vienna, Austria.

Human tPA = Human tPA (Homo sapiens, UniProt P00750); assay: biochemical; details: read-out: tPA % inhibition at 99 μM
Method: as §1, §2
tPa. Human tPA was from Biopool, Umeå, Sweden.

[2] = molecular target: T3, Human recombinant thrombin (Homo sapiens, UniProt P00734); assay: Thrombin (FIIa) chromogenic assay; assay type: biochemical; details: for inhibition at 99 µM: read-out: FIIa % inhibition at 99 μM
T3 construct: Human recombinant thrombin was prepared in house; made in house
Method: as §1, §2, §3
Thrombin. Human recombinant thrombin was prepared in house.

Human plasmin = molecular target: T4, Human plasmin (Homo sapiens, UniProt P00747); assay: Plasmin chromogenic assay; assay type: biochemical; details: for inhibition at 99 µM: read-out: Plasmin % inhibition at 99 μM
T4 construct: Human plasmin was from Enzyme Research Laboratories, Swansea, UK; purchased Enzyme Research Laboratories, Swansea, UK
Method: as §1, §2, §3
Plasmin. Human plasmin was from Enzyme Research Laboratories, Swansea, UK.

Caco2 cells = assay: Caco2 permeability; assay type: in vitro ADME
Method: A monolayer of Caco2 cells, cultured on semi-permeable polycarbonate surfaces, was used to study the permeability in the apical to basolateral direction. The process was atomized by a robotic Tecan EVO platform (Männerdorf, Switzerland) and 24-transwell plates from Costar (Cambridge, MA, USA). HBSS buffer pH 7.4 was dispensed to the basal side of the monolayer. […] Samples for quantitative analysis by LC/MS/MS were withdrawn before the addition of the test substrate and at 45 and 120 min post addition of the test substrate. During incubation the transwell plates were placed in a shaking incubator at 37°C between sampling. The peak areas were exported to Excel where Papp-values and recoveries were calculated. Twenty-two reference compounds with known human oral bioavailability were used to establish a correlation curve with Papp versus the fraction of the oral dose absorbed (fa).

Caco2 efflux = assay type: in vitro ADME; details: human, Caco-2; Caco2, Papp B to A / Papp A to B, pH 7.4 at side A
Description: Efflux was studied in the same Caco2 cells with the modification that HBSS buffer pH 7.4 was used on both sides of the monolayer. The permeability was studied in the apical to basolateral direction (Papp AB) as well as in the basolateral to apical direction and (Papp BA). Efflux ratios were derived from the following equation: Papp BA/Papp AB.

[3] = Chromatographic determination of lipophilicity; assay type: physicochemical; details: reversed-phase UPLC, Waters BEH C18 stationary phase, pH 7.4; measured by liquid chromatography, pH7.4
Description: The chromatographic data was obtained utilizing a Waters Aquity UPLC chromatographic system running a gradient from 5–95% acetonitrile at pH7.4. The stationary phase was a Waters BEH C18 2.1x50 mm. Standardized retention data were obtained by normalization against a set of compounds with precisely determined (octanol/water) logD-values. Lipophilicity values for samples were derived from a corresponding calibration curve.

rat hepatocytes = assay: Rat hepatocyte metabolic stability assay; assay type: in vitro ADME
Method: Rat hepatocyte metabolic stability was determined in accordance with the method described by Jacobson et al.. Cryo preserved hepatocytes at a concentration of 10^6 viable cells/mL were used. After thawing, hepatocytes were incubated for 10 min to warm to 37°C and test compounds, dissolved in acetonitrile, were added to give a final concentration of 1 μM. At 0.5, 5, 15, 30, 45, 60, 80, 100 and 120 min, the incubation system was mixed and 20 μL aliquots were transferred at each time point to wells in a separate plate filled with 80 μL acetonitrile to stop the reaction. The quenching plate was then vortexed followed by centrifugation, and supernatants were analyzed by LC/MS/MS. Peak areas were determined from extracted ion chromatograms, and the in vitro intrinsic clearance (in vitro CLint, in μL/min/10^6 cells) of parent compound was calculated from the slope in the regression analysis of the natural logarithm of parent concentration vs. time curve.

Chain of Human FIXa (P00740 227-461 limits assumed): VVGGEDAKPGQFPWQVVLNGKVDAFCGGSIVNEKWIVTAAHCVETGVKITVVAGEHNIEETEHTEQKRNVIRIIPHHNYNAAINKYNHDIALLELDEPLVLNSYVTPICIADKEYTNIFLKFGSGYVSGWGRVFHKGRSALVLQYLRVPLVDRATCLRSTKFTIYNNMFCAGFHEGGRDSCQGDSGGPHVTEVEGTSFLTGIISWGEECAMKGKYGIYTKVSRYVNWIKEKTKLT
Chain of Human FIXa (P00740 47-191 partner limits assumed): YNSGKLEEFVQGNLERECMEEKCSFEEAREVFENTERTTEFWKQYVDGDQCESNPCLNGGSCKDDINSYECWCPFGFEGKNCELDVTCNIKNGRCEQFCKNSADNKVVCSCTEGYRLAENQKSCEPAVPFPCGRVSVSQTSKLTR
T4 sequence (P00747 581-810 limits assumed): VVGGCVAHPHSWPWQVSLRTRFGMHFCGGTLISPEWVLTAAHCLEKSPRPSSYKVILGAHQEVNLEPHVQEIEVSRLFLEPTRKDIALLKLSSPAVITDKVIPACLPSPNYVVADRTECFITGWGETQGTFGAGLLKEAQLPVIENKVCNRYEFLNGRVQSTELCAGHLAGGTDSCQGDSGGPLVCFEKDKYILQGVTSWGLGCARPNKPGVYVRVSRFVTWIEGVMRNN
T4 sequence (P00747 97-580 partner limits assumed): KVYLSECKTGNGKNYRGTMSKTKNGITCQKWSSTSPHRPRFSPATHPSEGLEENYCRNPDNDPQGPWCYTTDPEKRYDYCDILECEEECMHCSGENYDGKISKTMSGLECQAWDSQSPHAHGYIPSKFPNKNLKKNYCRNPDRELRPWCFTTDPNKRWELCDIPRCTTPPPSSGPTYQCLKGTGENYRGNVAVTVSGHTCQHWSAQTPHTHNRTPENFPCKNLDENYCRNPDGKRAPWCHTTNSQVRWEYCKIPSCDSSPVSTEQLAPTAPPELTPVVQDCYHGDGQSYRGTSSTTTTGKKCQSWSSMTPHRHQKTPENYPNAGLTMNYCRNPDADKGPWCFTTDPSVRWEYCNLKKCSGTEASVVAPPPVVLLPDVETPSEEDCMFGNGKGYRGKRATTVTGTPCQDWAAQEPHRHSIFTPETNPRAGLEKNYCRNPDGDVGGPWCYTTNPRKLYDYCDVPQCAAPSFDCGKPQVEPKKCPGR
Chain of Human tPA (P00750 36-562): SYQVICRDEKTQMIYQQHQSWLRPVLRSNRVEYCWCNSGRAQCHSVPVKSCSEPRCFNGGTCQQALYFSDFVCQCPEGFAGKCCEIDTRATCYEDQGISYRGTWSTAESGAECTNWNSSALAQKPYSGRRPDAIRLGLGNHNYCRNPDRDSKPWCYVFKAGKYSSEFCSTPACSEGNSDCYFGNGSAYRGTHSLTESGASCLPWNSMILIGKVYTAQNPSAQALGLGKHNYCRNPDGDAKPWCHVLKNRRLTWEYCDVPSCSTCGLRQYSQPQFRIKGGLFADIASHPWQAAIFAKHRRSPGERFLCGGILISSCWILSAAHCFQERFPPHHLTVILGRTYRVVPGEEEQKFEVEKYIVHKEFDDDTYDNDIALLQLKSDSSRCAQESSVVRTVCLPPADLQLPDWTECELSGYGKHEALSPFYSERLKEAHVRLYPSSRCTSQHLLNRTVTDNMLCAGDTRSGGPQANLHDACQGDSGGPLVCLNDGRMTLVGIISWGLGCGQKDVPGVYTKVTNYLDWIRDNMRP
Chain of Human FXa (P00742 235-488 limits assumed): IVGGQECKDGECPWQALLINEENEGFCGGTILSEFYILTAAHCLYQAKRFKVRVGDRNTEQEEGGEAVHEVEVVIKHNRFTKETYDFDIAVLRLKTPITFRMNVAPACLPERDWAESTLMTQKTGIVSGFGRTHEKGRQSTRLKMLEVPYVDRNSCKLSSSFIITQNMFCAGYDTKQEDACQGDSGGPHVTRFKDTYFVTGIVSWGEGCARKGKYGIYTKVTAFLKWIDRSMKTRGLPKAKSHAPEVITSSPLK
Chain of Human FXa (P00742 41-179 partner limits assumed): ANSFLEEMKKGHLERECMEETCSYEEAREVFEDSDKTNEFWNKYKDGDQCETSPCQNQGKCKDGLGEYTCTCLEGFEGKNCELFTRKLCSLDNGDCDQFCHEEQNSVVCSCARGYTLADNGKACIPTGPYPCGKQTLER
T2 sequence (P03952 391-638 limits assumed): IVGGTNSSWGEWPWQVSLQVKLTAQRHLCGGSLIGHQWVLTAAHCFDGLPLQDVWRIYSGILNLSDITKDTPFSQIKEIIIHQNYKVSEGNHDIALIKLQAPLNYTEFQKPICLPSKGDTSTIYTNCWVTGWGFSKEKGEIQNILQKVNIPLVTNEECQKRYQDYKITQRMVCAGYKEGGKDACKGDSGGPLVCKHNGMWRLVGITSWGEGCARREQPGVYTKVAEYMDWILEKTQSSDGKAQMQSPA
T2 sequence (P03952 20-390 partner limits assumed): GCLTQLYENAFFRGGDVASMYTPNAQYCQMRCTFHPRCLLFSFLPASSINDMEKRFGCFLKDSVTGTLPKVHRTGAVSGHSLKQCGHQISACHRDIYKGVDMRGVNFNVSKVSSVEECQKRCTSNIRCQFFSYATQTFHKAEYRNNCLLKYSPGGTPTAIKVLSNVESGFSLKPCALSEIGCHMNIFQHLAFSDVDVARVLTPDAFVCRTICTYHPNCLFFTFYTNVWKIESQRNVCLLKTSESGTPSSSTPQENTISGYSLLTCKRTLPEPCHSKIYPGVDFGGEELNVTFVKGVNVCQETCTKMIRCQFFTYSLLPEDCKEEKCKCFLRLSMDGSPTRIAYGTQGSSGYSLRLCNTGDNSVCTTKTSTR
T1 sequence (P03951 388-625): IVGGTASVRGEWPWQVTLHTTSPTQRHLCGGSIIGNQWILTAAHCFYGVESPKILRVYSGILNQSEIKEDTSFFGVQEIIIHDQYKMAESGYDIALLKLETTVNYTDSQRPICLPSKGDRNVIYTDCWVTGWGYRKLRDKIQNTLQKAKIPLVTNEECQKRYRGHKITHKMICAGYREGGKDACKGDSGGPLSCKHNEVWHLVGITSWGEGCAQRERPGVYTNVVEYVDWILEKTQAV
T1 sequence (P03951 19-387): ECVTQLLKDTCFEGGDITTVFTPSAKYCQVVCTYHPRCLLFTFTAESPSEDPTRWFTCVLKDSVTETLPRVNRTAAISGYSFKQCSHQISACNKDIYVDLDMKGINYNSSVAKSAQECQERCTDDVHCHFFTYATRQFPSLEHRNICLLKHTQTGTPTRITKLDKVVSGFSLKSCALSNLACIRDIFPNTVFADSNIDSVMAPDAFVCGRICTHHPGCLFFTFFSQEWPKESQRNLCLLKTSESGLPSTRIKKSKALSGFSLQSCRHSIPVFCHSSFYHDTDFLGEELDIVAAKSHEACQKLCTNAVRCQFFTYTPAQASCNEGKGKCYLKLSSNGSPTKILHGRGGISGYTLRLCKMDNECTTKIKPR

| Compound | IC50 (Human FXIa) | Ki (Human FXIa) | IC50 (Human PKK) | Ki (Human PKK) | inhibition at 99 µM (Human FIXa) | inhibition at 99 µM (Human FXa) | inhibition at 99 µM [1] | inhibition at 99 µM (Human tPA) | inhibition at 99 µM (Human plasmin) | inhibition at 99 µM [2] | further results |
| --- | --- | --- | --- | --- | --- | --- | --- | --- | --- | --- | --- |
| [H]/N=C(/N)c1ccc2cc(C(=O)Nc3ccccc3)cc(Nc3ncccn3)c2c1 [Compound 1] | < 0.14 µM |  |  |  |  |  |  |  |  |  |  |
| O=C(CCc1cc(=O)[nH]c2ccc(Cl)cc12)N[C@@H](Cc1ccccc1)C(=O)Nc1ccc(-c2nnn[nH]2)cc1 [Compound 24, (S)-N-(4-(1H-Tetrazol-5-yl)phenyl)-2-(3-(6-chloro-2-oxo-1,2-dihydroquinolin-4-yl)propanamido)-3-phenylpropanamide] | 9 µM | 4.5 µM |  |  |  |  |  |  |  |  |  |
| CCCS(=O)(=O)N[C@@H](C(=O)N[C@@H](CC(C)C)C(=O)NCc1ccc(C(=N)N)cc1)C1CCCCC1 [Compound 2, reference compound] | 0.11 µM | 0.06 µM |  |  |  |  |  |  |  |  |  |
| COC(=O)Nc1ccc(-c2nc(CNC(=O)CCc3cc(Cl)ccc3-n3cnnn3)[nH]c2Cl)cc1 [Compound 11, reference compound] | 0.16 µM | 0.08 µM | 20 µM | 4.2 µM | 0% | 6% | 4% | 0% | 0% |  | IC50 [2]: 63 µM; Ki ([2]; converted from IC50): 31 µM |
| O=C1CC(CNC(=O)[C@H](Cc2ccccc2)NC(=O)c2ccc3[nH]c(=O)cc(O)c3c2)c2cc(Cl)ccc2N1 (some centres unmarked) [Compound 18, N-({2S}-1-({6-Chloro-2-oxo-1,2,3,4-tetrahydroquinolin-4-yl}methylamino)-1-oxo-3-phenylpropan-2-yl)-4-hydroxy-2-oxo-1,2-dihydroquinoline-6-carboxamide] | 0.01 µM | 0.005 µM |  |  |  |  |  |  |  |  |  |
| O=C(CC1Cc2cc(Cl)ccc2NC1=O)NC(Cc1ccccc1)C(=O)Nc1ccc(-c2nnn[nH]2)cc1 (centres unmarked) [Compound 21, N-(4-(1H-Tetrazol-5-yl)phenyl)-2-(2-(6-chloro-2-oxo-1,2,3,4-tetrahydroquinolin-3-yl)acetamido)-3-phenylpropanamide] | 1.9 µM | 0.95 µM | 25 µM | 5.2 µM | 0% | 0% | 1% | 3% | 0% | 2% |  |
| CN(Cc1cc(=O)[nH]c2ccc(Cl)cc12)C(=O)[C@H](Cc1ccccc1)N(C)C(=O)c1ccc2[nH]c(=O)cc(O)c2c1 [Compound 26, (S)-N-(1-[{(6-Chloro-2-oxo-1,2-dihydroquinolin-4-yl)methyl}(methyl)amino]-1-oxo-3-phenylpropan-2-yl)-4-hydroxy-N-methyl-2-oxo-1,2-dihydroquinoline-6-carboxamide] | 1.7 µM | 0.85 µM |  |  |  |  |  |  |  |  | Caco2 A to B permeability (Caco2 cells; measured at pH 6.5): 0.16 1·10^-6 cm/s; efflux ratio (Caco2 efflux): > 3.8; chromatographic logD [3]: 1.4; Rat CLint (rat hepatocytes): 23 μL/min/ 1·10^6 cells |
| O=C(CCc1cc2cc(Cl)ccc2[nH]c1=O)N[C@@H](Cc1ccccc1)C(=O)Nc1ccc(-c2nnn[nH]2)cc1 [Compound 23, (S)-N-(4-(1H-Tetrazol-5-yl)phenyl)-2-(3-(6-chloro-2-oxo-1,2-dihydroquinolin-3-yl)propanamido)-3-phenylpropanamide] | 67 µM | 34 µM |  |  |  |  |  |  |  |  |  |
| O=C(Cc1cc2cc(Cl)ccc2[nH]c1=O)NC(Cc1ccccc1)C(=O)Nc1ccc(-c2nnn[nH]2)cc1 (centres unmarked) [Compound 22, N-(4-(1H-Tetrazol-5-yl)phenyl)-2-(2-(6-chloro-2-oxo-1,2-dihydroquinolin-3-yl)acetamido)-3-phenylpropanamide] | 10 µM | 5 µM | 10 µM | 2.1 µM | 7% | 24% | 14% | 18% |  | 27% | IC50 (Human plasmin): 70 µM; Ki (Human plasmin; converted from IC50): 33 µM |
| CC(=O)N[C@@H](Cc1ccccc1)C(=O)NCc1cc(=O)[nH]c2ccc(Cl)cc12 [Compound 14, (S)-2-Acetamido-N-{(6-chloro-2-oxo-1,2-dihydroquinolin-4-yl)methyl}-3-phenylpropanamide] | 33 µM | 16 µM | 59 µM | 12 µM | 4% | 0% | 18% | 3% | 7% | 9% | ligand efficiency (LE) (Human FXIa; FXIa): 0.22 |
| O=c1ccc2cc(Cl)ccc2[nH]1 [Compound 5] | 140 µM |  |  |  | 1% | 31% | 0% | 0% | 31% | 8% | inhibition at 99 µM (Human PKK; read-out: PKK % inhibition at 99 μM): 5%; ligand efficiency (LE) (Human FXIa; FXIa): 0.44; -ΔG fragment (printed with reversed sign in the ΔG link equation) (Human FXIa; FXIa, subtracted term, so ΔG itself is negative): 5.66 kcal/mol; Ki (Human FXIa; read-out: FXIa Ki): 70 µM |
| Cc1cc(N)nc2ccccc12 [Compound 19] | 240 µM | 120 µM |  |  | 7% | 9% | 43% | 7% | 8% | 8% |  |
| O=C1CC(CC(=O)NC(Cc2ccccc2)C(=O)Nc2ccc(-c3nnn[nH]3)cc2)c2cc(Cl)ccc2N1 (centres unmarked) [Compound 20, N-(4-(1H-Tetrazol-5-yl)phenyl)-2-(2-(6-chloro-2-oxo-1,2,3,4-tetrahydroquinolin-4-yl)acetamido)-3-phenylpropanamide] | 0.33 µM | 0.16 µM | 2.3 µM | 0.48 µM | 4% | 12% | 7% | 15% | 8% | 10% |  |
| Cc1c(-c2ccccc2)n[nH]c1C(=O)N(C)Cc1cc(=O)[nH]c2ccccc12 [Compound 27] | 99 µM | 50 µM |  |  |  |  |  |  |  |  | Caco2 A to B permeability (Caco2 cells; measured at pH 7.4 at side A): 12 1·10^-6 cm/s; efflux ratio (Caco2 efflux): 6.7; Rat CLint (rat hepatocytes): 58 μL/min/ 1·10^6 cells |
| N=C(N)c1ccccc1 [Compound 7, benzamidine, reference compound] | 610 µM |  |  |  |  |  |  |  |  |  |  |
| CN(C)C(=O)[C@H](Cc1ccccc1)NC(=O)c1ccc2[nH]c(=O)cc(O)c2c1 [Compound 16, (S)-N-(1-(Dimethylamino)-1-oxo-3-phenylpropan-2-yl)-4-hydroxy-2-oxo-1,2-dihydroquinoline-6-carboxamide] | > 1000 µM |  |  |  |  |  |  |  |  |  | inhibition at 1000 µM (Human FXIa; read-out: FXIa % inh. at 1 mM): 36% |
